Experimental data: US8658604B2, “Template-fixed beta-hairpin peptidomimetics with protease inhibitory activity” (Polyphor Ltd, priority 2005, dated 2014)
Where a SMILES comes first, the peptide text is derived from it.

Experiments:
HELA cells (Acc57) = assay: Cytotoxicity assay (MTT reduction), HELA cells; format: cell-based; conditions: Hela cells
How it was run: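 HeLa cells were grown for 24 h, then exposed to peptides at 12.5, 25 and 50 μM in triplicate for 48 h at 37 °C. MTT reduction was read at 595 nm and growth % calculated relative to time-zero wells. LC50 interpolated by linear trend at −50% growth, GI50 at 50%.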

[1] = target: Thrombin, from Human Plasma (Homo sapiens, UniProt P00734)
[2] = target: T1, Elastase from human neutrophils (Homo sapiens, UniProt P08246); assay: Enzymatic assay, elastase; conditions: Elastase IC50
T1 sequence (P08246 30-267): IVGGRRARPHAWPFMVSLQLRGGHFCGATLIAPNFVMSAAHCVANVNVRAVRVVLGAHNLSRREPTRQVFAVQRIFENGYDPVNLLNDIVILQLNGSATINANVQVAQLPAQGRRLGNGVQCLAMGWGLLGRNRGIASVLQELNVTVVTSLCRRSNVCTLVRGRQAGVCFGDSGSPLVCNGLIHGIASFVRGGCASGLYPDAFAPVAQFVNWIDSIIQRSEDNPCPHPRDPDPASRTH

[3] = target: T2, CathepsinG, from human neutrophils (Homo sapiens, UniProt P08311)
T2 sequence (P08311 21-244): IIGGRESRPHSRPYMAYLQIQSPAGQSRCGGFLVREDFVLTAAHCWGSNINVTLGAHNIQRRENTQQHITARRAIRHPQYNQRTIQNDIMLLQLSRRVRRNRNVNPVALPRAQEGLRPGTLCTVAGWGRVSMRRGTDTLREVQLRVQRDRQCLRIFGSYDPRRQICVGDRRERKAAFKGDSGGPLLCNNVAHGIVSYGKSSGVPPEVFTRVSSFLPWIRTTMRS

[4] = target: Coagulation Factor Xa, from uman plasma (Homo sapiens, UniProt P00742)
[5] = target: T3, Chymotrypsin, from human pancreas (Homo sapiens, UniProt P17538); assay: Enzymatic assay, chymotrypsin
Chymase, from human skin = target: T4, Chymase, from human skin (Homo sapiens, UniProt P23946)
T4 sequence (P23946 22-247): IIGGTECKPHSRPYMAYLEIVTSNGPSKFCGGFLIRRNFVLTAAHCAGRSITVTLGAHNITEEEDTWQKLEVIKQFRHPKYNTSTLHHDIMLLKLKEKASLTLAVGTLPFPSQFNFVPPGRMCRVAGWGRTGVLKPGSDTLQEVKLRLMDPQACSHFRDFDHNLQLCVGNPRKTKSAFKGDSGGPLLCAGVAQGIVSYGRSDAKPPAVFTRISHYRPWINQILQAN

[6] = target: Trypsin, from human pancreas (Homo sapiens, UniProt P07477)
[7] = target: T3, Chymotrypsin, from human pancreas
[8] = target: T2, CathepsinG, from human neutrophils; assay: Enzymatic assay, cathepsin G; conditions: Cathepsin G IC50
[9] = target: Urokinase from human urine (Homo sapiens, UniProt P00749)
[10] = tested on: Tryptase, from human lung; assay: Enzymatic assay, tryptase; conditions: at 100 μM
[11] = tested on: human red blood cells (hRBC); assay: Hemolysis
[12] = format: in vitro ADME; conditions: 10 µM
Description: 405 μl of plasma/albumin solution were placed in a polypropylene (PP) tube and spiked with 45 μl of compound from a […] solution B, derived from 135 μl of PBS and 15 μl of 1 mM peptide in PBS, pH 7.4. 150 μl aliquots were transferred into individual wells of the 10 kDa filter plate (Millipore MAPPB 1010 Biomax membrane). For “0 minutes controls”: 270 μl of PBS were placed in a PP tube and 30 μl of stock solution B was added and vortexed. 150 μl of control solution were placed into one well of the filter plate and served as “filtered control”.
Further 150 μl of control solution were placed directly into a receiver well (reserved for filtrate) and served as “not-filtered control”. The entire plate including evaporation lid was incubated for 60 min at 37° C. Plasma samples (rat plasma: Harlan Sera lab UK, human plasma: Blutspendezentrum Zürich) were centrifuged at least for 2 h at 4300 rpm (3500 g) and 15° C. in order to yield 100 filtrate. For “serum albumin”-samples (freshly prepared human albumin: Sigma A-4327, rat albumin: Sigma A-6272, all at 40 mg/ml concentration in PBS) approximately 1 hour of centrifugation was sufficient. The filtrates in the receiver PP plate were analysed by LC/MS as follower follows: Column: Jupiter C18 (Phenomenex), mobile phases: (A) 0.1% formic acid in water and (B) acetonitrile, gradient: 5%-100% (B) in 2 minutes, electrospray ionization, MRM detection (triple quadrupole). The peak areas were determined and triplicate values were averaged. The binding was expressed in percent of the (filtered and not-filtered time point 0 min) control 1 and 2 by: 100−(100×T60/T0). The average from these values was then calculated.

T3 sequence (P17538 19-263): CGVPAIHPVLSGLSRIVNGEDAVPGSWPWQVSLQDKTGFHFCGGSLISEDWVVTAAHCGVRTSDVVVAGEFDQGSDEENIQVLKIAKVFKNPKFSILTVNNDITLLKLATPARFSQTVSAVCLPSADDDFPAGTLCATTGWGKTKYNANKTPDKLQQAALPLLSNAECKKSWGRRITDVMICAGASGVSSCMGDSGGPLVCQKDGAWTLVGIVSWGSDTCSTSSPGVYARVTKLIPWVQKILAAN
Coagulation Factor Xa, from uman plasma, sequence (P00742 235-488 limits assumed): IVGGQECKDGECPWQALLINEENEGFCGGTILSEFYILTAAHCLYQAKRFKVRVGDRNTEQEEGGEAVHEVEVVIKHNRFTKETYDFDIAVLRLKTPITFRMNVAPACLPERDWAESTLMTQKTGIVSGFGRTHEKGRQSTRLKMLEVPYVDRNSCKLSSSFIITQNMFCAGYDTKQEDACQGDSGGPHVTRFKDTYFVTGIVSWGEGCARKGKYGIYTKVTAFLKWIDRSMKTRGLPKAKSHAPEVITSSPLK
Coagulation Factor Xa, from uman plasma, sequence (P00742 41-179 limits assumed): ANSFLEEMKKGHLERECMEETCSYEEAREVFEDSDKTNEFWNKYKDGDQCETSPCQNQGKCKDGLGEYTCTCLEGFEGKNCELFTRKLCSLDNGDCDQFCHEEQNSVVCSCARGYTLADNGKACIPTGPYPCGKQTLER

Structure (SMILES)	Cytotoxicity LC50/GI50 Hela cells (HELA cells (Acc57))	Thrombin at 100 μM % [1]	IC50 [2]	Cathepsin G at 100 μM % [3]	FXa at 100 μM % [4]	IC50 [5]	Chymase at 100 μM % (Chymase, from human skin)	Trypsin at 100 μM % [6]	Chymotrypsin at 100 μM % [7]	IC50 [8]	Urokinase at 100 μM % [9]	Tryptase at 100 μM % [10]	Hemolysis at 100 μM % [11]	Stability human Plasma t1/2 [12]	Stability rat Plasma t1/2 [12]
CCCCCCCC[C@@H]1NC(=O)[C@H](CO)NC(=O)[C@H](C)NC(=O)[C@H]([C@@H](C)O)NC(=O)[C@@H]2CSSC[C@H](NC(=O)[C@H](CCC(N)=O)NC(=O)[C@@H]3CCCN3C(=O)[C@@H]3CCCN3C1=O)C(=O)N[C@@H](Cc1ccc(O)cc1)C(=O)N1CCC[C@@H]1C(=O)N1CCC[C@H]1C(=O)N[C@@H](CCCC)C(=O)N2 [Ex. 81] (HELM PEPTIDE1{[Nle].C.T.A.S.[CCCCCCCC[C@H](N[*:1])C(=O)[*:2]].P.P.Q.C.Y.[dP].P}$PEPTIDE1,PEPTIDE1,2:R3-10:R3|PEPTIDE1,PEPTIDE1,1:R1-13:R2$$$V2.0)	58000 nM	13.1%	28 nM	61.3 at 100%	8.7%	100000 nM									
CCCC[C@@H]1NC(=O)[C@@H]2CCCN2C(=O)[C@H]2CCCN2C(=O)[C@H](Cc2ccc(O)cc2)NC(=O)[C@H]([C@@H](C)O)NC(=O)[C@H](CCC(N)=O)NC(=O)[C@@H]2CCCN2C(=O)[C@@H]2CCCN2C(=O)[C@H]([C@@H](C)CC)NC(=O)[C@H](CO)NC(=O)[C@H](C)NC(=O)[C@H]([C@@H](C)O)NC(=O)[C@H](CCC(N)=O)NC1=O [Ex. 109] (HELM PEPTIDE1{[Nle].Q.T.A.S.I.P.P.Q.T.Y.[dP].P}$PEPTIDE1,PEPTIDE1,1:R1-13:R2$$$V2.0)		0%	33 nM	54.1 at 100%	5.6%	13.8 nM	0.1%	0%							
CC[C@H](C)[C@@H]1NC(=O)[C@@H]2CCCN2C(=O)[C@@H]2CCCN2C(=O)[C@H](CCC(=O)O)NC(=O)[C@H](CO)NC(=O)[C@H](CCCCN)NC(=O)[C@H]([C@@H](C)O)NC(=O)[C@@H]2CSSC[C@H](NC1=O)C(=O)N[C@@H](CO)C(=O)N1CCC[C@@H]1C(=O)N1CCC[C@H]1C(=O)N[C@@H](Cc1ccccc1)C(=O)N2 [Ex. 21] (HELM PEPTIDE1{F.C.T.K.S.E.P.P.I.C.S.[dP].P}$PEPTIDE1,PEPTIDE1,2:R3-10:R3|PEPTIDE1,PEPTIDE1,1:R1-13:R2$$$V2.0)			16.4 nM				5%	95.6%	2.6%	97 nM					
CC[C@H](C)[C@@H]1NC(=O)[C@@H]2CCCN2C(=O)[C@@H]2CCCN2C(=O)[C@H](CC(=O)O)NC(=O)[C@H](CO)NC(=O)[C@H](CCCCN)NC(=O)[C@H]([C@@H](C)O)NC(=O)[C@@H]2CSSC[C@H](NC1=O)C(=O)N[C@@H](CCCNC(=N)N)C(=O)N1CCC[C@@H]1C(=O)N1CCC[C@H]1C(=O)N[C@@H](C1CCCCC1)C(=O)N2 [Ex. 12] (HELM PEPTIDE1{[O=C([C@@H](N[*:1])C1CCCCC1)[*:2]].C.T.K.S.D.P.P.I.C.R.[dP].P}$PEPTIDE1,PEPTIDE1,2:R3-10:R3|PEPTIDE1,PEPTIDE1,1:R1-13:R2$$$V2.0)	59300 nM	11%	37000 nM		5%		12%	97%	28%	90 nM	12%	59.3%			
CCCC[C@@H]1NC(=O)[C@H]([C@@H](C)O)NC(=O)[C@@H]2CSSC[C@H](NC(=O)[C@H]([C@@H](C)CC)NC(=O)[C@@H]3CCCN3C(=O)[C@@H]3CCCN3C(=O)[C@H](CC(=O)O)NC(=O)[C@H](CO)NC1=O)C(=O)N[C@@H](CCCNC(=N)N)C(=O)N1CCC[C@@H]1C(=O)N1CCC[C@H]1C(=O)N[C@@H]([C@@H](C)CC)C(=O)N2 [Ex. 22] (HELM PEPTIDE1{I.C.T.[Nle].S.D.P.P.I.C.R.[dP].P}$PEPTIDE1,PEPTIDE1,2:R3-10:R3|PEPTIDE1,PEPTIDE1,1:R1-13:R2$$$V2.0)	8000 nM		> 100000 nM				98.8%	84. %	0%	55 nM	5.7%	3.8%	0%	5 h	5 h
